Values of other authors as cited in US7759361B2, “Azabicyclooctan-3-one derivatives and use thereof” (Aprea AB, priority 2004, dated 2010).

System: cells carrying mutant p53
Conditions: disclosed in WO 02/24692

For O=C1C2CCN(CC2)C1(CO)CO [PRIMA-1, 2,2-bis(hydroxymethyl)-1-azabicyclo[2.2.2]octan-3-one], which induction of apoptosis is on record?
The induction of apoptosis was “able to induce apoptosis”.
